Assay results: US10906909B2, “Treatment of cognitive and mood symptoms in neurodegenerative and neuropsychiatric disorders with ALPHA5-containing GABAA receptor agonists” (UWM Research Foundation, Inc., priority 2016, dated 2021)

Key:
rats [1] = test: Morris water maze; assay type: in vivo, rat; settings: diazepam 2 mg/kg, positive control
Procedure: The potential of MP-III-022 to affect cognitive performance of rats was assessed in 2 well-validated behavioral models. First, Morris water maze experiments were performed in a 2 m diameter circular pool filled to a height of 30 cm with water at 22±1° C. The escape platform (15 cm×10 cm) was submerged 2 cm below the water surface. All experimental details were as described in Savic et al. (Int. J. Neuropsychopharmacol. 2009, 12, 1179-1193). On each of the five consecutive days rats were given one swimming block, consisting of four trials. For each trial the rat was placed in the water at one of four pseudo-randomly determined starting positions. Once the rat has found and mounted the escape platform it was permitted to remain on the platform for 15 s. […] During the acquisition phase, treatments were applied once daily before the swimming block. On the sixth day, rats were given a treatment-free probe test (60 s) without the platform. The probe test was started from the novel, most distant location. Dependent variables chosen for tracking during the acquisition trials were: escape latency (s), total distance traveled (m), path efficiency (the ratio of the shortest possible path length to actual path length), % of distance swam in the peripheral annulus and mean speed (m/s). The selected parameters in the probe test were the distance swam in the target zone […] and % of the distance swam in the peripheral annulus. We tested the effects of 1, 2.5 and 10 mg/kg MP-III-022 and 2 mg/kg diazepam as control drug. The doses of MP-III-022 were selected so that they elicit a mild, moderate and strong positive modulation of α5GABAARs, respectively, in accordance with the analysis of thorough pharmacokinetic and electrophysiological data presented in Stamenic et al. (Eur. J. Pharmacol. 2016, 791, 433-443). The data from the acquisition days in the Morris water maze were averaged for each rat (total data/total number of trials per day) and analyzed using two-way ANOVA with repeated measures (factors: Treatment and Days) with Days as the repeated measure. In the case of significant interaction, separate one-way ANOVAs were conducted to assess the influence of treatment within individual levels of factor Days. The data from the probe test were assessed using one-way ANOVA.

rats [2] = test: Social novelty discrimination (SND); assay type: in vivo, rat; settings: 2.5 mg/kg diazepam (so in the source)
Procedure: The SND test compares the social investigation times of an adult rat with a familiar and a novel juvenile rat. Testing consisted of two consecutive juvenile presentations periods to an adult subject: period 1 (P1) and period 2 (P2). At the beginning of P1, one juvenile was placed into the adult home cage and the time spent by the adult investigating the juvenile (anogenital sniffing, licking, close pursuing and pawing) was recorded manually for 5 min. During P2, the same juvenile and a second, novel juvenile were placed in the cage together with the adult, and the times spent by the adult investigating each juvenile were measured independently for 3 min. A different pair of juvenile rats was presented to each adult tested. Manual scoring was conducted in a blinded manner. SND was deliberately impaired in control rats by the parametric manipulation applied, as there was 30 min delay between P1 and P2, and their SND was expected to be low. The influence of MP-III-022 (1, 2.5 or 10 mg/kg) on the thus induced impairment in SND was examined. There were five groups of rats which received one of the following treatments 20 min before P1: solvent, 1.5 mg/kg diazepam and 1, 2.5 and 10 mg/kg MP-III-022. The amount of time investigating familiar (Tf) and novel (Tn) juvenile during P2 was manually scored, and discrimination indexes (Tn−Tf/Tn+Tf) was calculated. Total exploration time during P1 and P2 was also manually recorded.

[3] = system: Female Swiss Webster mice; test: Rotarod sensorimotor / locomotor coordination; assay type: in vivo, mouse; settings: diazepam 5 mg/kg oral gavage; positive control
Procedure: Female Swiss Webster mice (10 weeks of age) from Charles River Laboratory, WIL, MA were used for the experiments. The animals were housed under specific pathogen-free conditions, under standard conditions of humidity, temperature and a controlled 12 h light and dark cycle and had free access to food and water. The sensorimotor rotarod test was carried out 10, 30 and 60 minutes after the injection. Mice were tested on a rotarod at 15 rpm for maximum 3 min and the time of fall was recorded. Falling before the 3 minutes period of testing assesses of locomotor coordination impairment induced by the compound.
Mice (N=10/group) received a single administration via oral gavage of test compound (40 mg/kg), diazepam (5 mg/kg), or vehicle (2% polyethylene glycol, 2.5% hydroxypropylmethyl cellulose solution).

CN1C(=O)CN=C(c2ccccc2)c2cc(Cl)ccc21 [diazepam, reference compound]
spatial learning during acquisition in the water maze (rats [1]): spatial learning incapacitation | time exploring the familiar and the novel juvenile rat during P2 (rats [2]): statistical trend | sensorimotor performance on rotarod (time of fall) [3]: sensorimotor steadiness at 10 minutes
